According to US20250332167A1, “PHARMACEUTICAL USE OF CDK 4/6 INHIBITOR” (priority 2021, published 2025):
“And” between values parts separate entries of the source, which are not always exact repeats. Identical values can stand only once. “Also recorded” adds a separate entry of the source.

Legend:
SK-MES-1 = assay: Proliferation inhibition, non-small cell lung cancer cell line SK-MES-1; format: cell-based; conditions: Homo sapiens, SK-MES-1, 72 h
Protocol: (§1) Sixteen non-small cell lung cancer cell lines, including NCI-H1792, NCI-H1703, NCI-H441, SNU-761, NCI-H1975, NCI-H358, NCI-H1838, NCI-H1915, A549, SK-MES-1, NCI-H292, PC-9, NCI-H460, NCI-H23, NCI-H1581, and HLF, were used for the proliferation inhibition assay of the present invention compound. […] The cell detection equipment used was In Cell Analyzer 2200 (GE Healthcare).
(§2) With 60 μM as the initial concentration, ten points were obtained by serial five-fold dilution.
(§3) Each kind of cell in logarithmic growth phase was inoculated with 4000 cells/100 μl/well into a black transparent bottom 96-well plate and cultured overnight at 37° C. The next day, the plate was taken out, and 20 μL of the prepared sample dilutions was added to each well. The plate was then subjected to treatment at 37° C. for 72 hours. After the treatment period of 72 hours, the plate was taken out and 50 μL of neutral formaldehyde fixative (formaldehyde: PBS=1:9, 50 μl/well) was added to each well. The plate was then fixed at room temperature for 10-30 minutes. Subsequently, the wells were washed twice with 1× PBS (100 μl/well) and treated with 0.2% Triton™-X100 for 5-10 minutes to permeabilize the cells. […] The inhibitory rates of each compound at different concentration points were calculated by using the following formula, and IC50 values were obtained through curve fitting using GraphPad Prism 6.0 software.

NCI-H1838 = assay: Proliferation inhibition, non-small cell lung cancer cell line NCI-H1838; format: cell-based; conditions: Homo sapiens, NCI-H1838, 72 h
Protocol: as §1, §2, §3

NCI-H1792 = assay: Proliferation inhibition, non-small cell lung cancer cell line NCI-H1792; format: cell-based; conditions: Homo sapiens, NCI-H1792, 72 h
Protocol: as §1, §2, §3

HLF = assay: Proliferation inhibition, non-small cell lung cancer cell line HLF; format: cell-based; conditions: Homo sapiens, 72 h
Protocol: as §1, §2, §3

A549 = assay: Proliferation inhibition, non-small cell lung cancer cell line A549; format: cell-based; conditions: Homo sapiens, A549, 72 h
Protocol: as §1, §2, §3

NCI-H1975 xenograft = assay: Human non-small cell lung cancer NCI-H1975 xenograft mouse model; format: in vivo, Balb/c nude mice; conditions: for T/C / TGI / Tumor relative volume (x ± S) / Tumor volume (x ± S): 16 days after administration; for Body weight change: Day 20 of treatment
Text: (§4) The formula for calculating tumor volume was: Tumor Volume (mm^3)=½×(a×b^2) (where “a” represents the long diameter and “b” represents the short diameter).
(§5) The relative tumor growth rate (T/C) is the percentage value of the relative tumor volume or weight between the treatment group and the control group at a certain time point. The calculation formula is as follows: • T/C(%)=TRTV/CRTV×100% (TRTV: Average RTV of the treatment group; CRTV: Average RTV of the Vehicle group; RTV=Vt/V0, where V0 is the tumor volume of the animal at the time of grouping and Vt is the tumor volume of the animal after treatment).
(§6) (T and C are the relative tumor volume (RTV) or weight (TW) of the treatment group and control group at a specific time point, respectively).
NCI-H1975 cells were cultured in RPMI1640 medium containing 10% fetal bovine serum. Log-phase NCI-H1975 cells were collected, suspended in PBS to an appropriate concentration, and used for subcutaneous tumor implantation in Balb/c nude mice. Each female mouse was implanted with 0.1 ml of NCI-H1975 cells subcutaneously. When the average tumor volume reached 171 mm^3, the mice were randomly divided into groups based on tumor size.
The positive control drugs were Palbociclib and Abemaciclib.
Each group consisted of 8 mice, and oral gavage administration was performed once daily for a total of 21 days. Tumor volume and body weight changes were observed regularly, and efficacy evaluation was conducted based on relative tumor proliferation rate (T/C) and relative tumor growth inhibition rate (TGI). The calculation methods for tumor volume, T/C, and TGI are described in Example 3.

NCI-H2228 xenograft = assay: Human non-small cell lung cancer NCI-H2228 xenograft mouse model; format: in vivo, mice
Text: as §4, §5, §6
Human non-small cell lung cancer cells NCI-H2228 were cultured in RPMI-1640 medium containing 10% fetal bovine serum. Log-phase NCI-H2228 cells were collected, suspended in PBS to an appropriate concentration, and mixed with extracellular matrix gel in a 1:1 ratio for subcutaneous tumor implantation in mice. Twenty female mice were subcutaneously implanted with NCI-H2228 cells on the right side. The cells were suspended in PBS and mixed evenly with matrix gel in a 1:1 ratio (0.1 ml per mouse). When the average tumor volume reached 143 mm^3, the mice were randomly divided into groups based on tumor size. The groups received either the solvent or Compound A from Example 1 (50 mg/kg), administrated by oral intragastric administration once a day for 28 days. Tumor volume and body weight changes were regularly observed. All animals were euthanized on day 50 after cell inoculation. The tumors were weighed and photographed. The calculation methods for tumor volume, relative tumor growth rate (T/C), and tumor growth inhibition rate (TGI) were shown in Example 3.

[1] = 10 mg/kg oral gavage once daily
[2] = 25 mg/kg oral gavage once daily
[3] = 50 mg/kg oral gavage once daily
[4] = 50 mg/kg oral once a day for 28 days, day 50 post-implantation
[5] = 50 mg/kg oral once a day, treatment period

## CC1=Nc2c(F)cc(-c3nc(Nc4ccc(C5CCN(C)CC5)cn4)ncc3F)cc2C12CCCC2.O=C(O)/C=C/C(=O)O [Compound A, Fumarate salt of 5-fluoro-4-(7′-fluoro-2′-methylspiro[cyclopentane-1,3′-indol]-5′-yl)-N-(5-(1-methylpiperidin-4-yl)pyridin-2-yl)pyrimidine-2-amine]
SK-MES-1
  IC50: 67 nM
NCI-H1838
  IC50: 47.9 nM
NCI-H1792
  IC50: 3 nM
HLF
  IC50: 2010 nM
A549
  IC50: 66 nM
NCI-H1975 xenograft; 5 mg/kg oral gavage once daily
  T/C: 85%
  TGI: 15%
  Tumor relative volume (x ± S): 9.8 ± 0.6
  Tumor volume (x ± S): 1889 mm^3 and 1889 ± 60 mm^3
NCI-H1975 xenograft; [1]
  T/C: 72%
  TGI: 28%
  Tumor relative volume (x ± S): 8.4 ± 1.0
  Tumor volume (x ± S): 1647 mm^3 and 1647 ± 243 mm^3
NCI-H1975 xenograft; [2]
  T/C: 50%
  TGI: 50%
  Tumor relative volume (x ± S): 5.8 ± 0.3
  Tumor volume (x ± S): 1141 mm^3 and 1141 ± 112 mm^3
  Body weight change: slight decrease in body weight
NCI-H1975 xenograft; [3]
  T/C: 31%
  TGI: 69%
  Tumor relative volume (x ± S): 3.6 ± 0.2
  Tumor volume (x ± S): 709 mm^3 and 709 ± 47 mm^3
  Body weight change: slight decrease in body weight
NCI-H2228 xenograft; [4]
  T/C: 64%
  TGI: 36%
  Tumor relative volume (x ± SEM): 3.38 ± 0.23
  Tumor volume (x ± SEM): 506.53 mm^3
NCI-H2228 xenograft; 50 mg/kg oral once a day for 28 days, day 50 post-implantation, listed as CompoundA
  Tumor volume (x ± SEM): 506.53 ± 44.73 mm^3
NCI-H2228 xenograft; [5]
  Body weight change: slight weight loss
  Tolerability / adverse effects: good tolerability; also recorded: no obvious adverse effects
